How the values were obtained:
Phakopsora pachyrhizi = assay: Curative control of soy bean rust on soy beans, green house test; format: in vivo, Phakopsora pachyrhizi on soy bean seedlings; conditions: 300 ppm, curative spray after inoculation; assessed after 14 days; untreated plants 90% infected
Protocol: (§1) The spray solutions were prepared in several steps: A mixture of acetone and/or dimethylsulfoxide and the wetting agent/emulsifier Wettol, which is based on ethoxylated alkylphenoles, in a relation (volume) solvent-emulsifier of 99 to 1 was added to 25 mg of the compound to give a total of 10 ml. Water was then added to total volume of 100 ml. This stock solution was diluted with the described solvent-emulsifier-water mixture to the given concentration.
Leaves of pot-grown soy bean seedlings were inoculated with spores of Phakopsora pachyrhizi. To ensure the success of the artificial inoculation, the plants were transferred to a humid chamber with a relative humidity of about 95% and 20 to 24° C. for 24 h. The next day the plants were cultivated for 2 days in a greenhouse chamber at 23-27° C. and a relative humidity between 60 and 80%. Then the plants were sprayed to run-off with an aqueous suspension, containing the concentration of active ingredient as described below. The plants were allowed to air-dry. Then the trial plants were cultivated for 14 days in a greenhouse chamber at 23-27° C. and a relative humidity between 60 and 80%. The extent of fungal attack on the leaves was visually assessed as % diseased leaf area.

Puccinia recondite = assay: Preventative control of brown rust on wheat, green house test; format: in vivo, Puccinia recondite on wheat seedlings; conditions: 300 ppm, preventative spray one day before inoculation; assessed after 6 days in greenhouse; untreated plants 80% infected
Protocol: as §1
The first two developed leaves of pot-grown wheat seedling were sprayed to run-off with an aqueous suspension, containing the concentration of active ingredient or their mixture as described below. The next day the plants were inoculated with spores of Puccinia recondite. To ensure the success the artificial inoculation, the plants were transferred to a humid chamber without light and a relative humidity of 95 to 99% and 20 to 24° C. for 24 h. Then the trial plants were cultivated for 6 days in a greenhouse chamber at 20-24° C. and a relative humidity between 65 and 70%. The extent of fungal attack on the leaves was visually assessed as % diseased leaf area.

Botrytis cinerea = assay: Activity against the grey mold Botrytis cinerea in the microtiterplate test (Botrci); format: cell-based; conditions: 31 ppm active compound; absorption at 405 nm 7 days after inoculation; active compound-free control = 100%
Protocol: The active substances were formulated separately as a stock solution in dimethyl sulfoxide (DMSO) at a concentration of 10 000 ppm. The stock solutions were mixed according to the ratio, pipetted onto a micro titer plate (MTP) and diluted with water to the concentration given below. A spore suspension of Botrytis cinerea in an aqueous biomalt solution was then added. The plates were placed in a water vapor-saturated chamber at a temperature of 18° C. Using an absorption photometer, the MTPs were measured at 405 nm 7 days after the inoculation. The measured parameters were compared to the growth of the active compound-free control variant (100%) and the fungus-free and active compound-free blank value to determine the relative growth in % of the pathogens in the respective active compounds.

SMILES | infection (% diseased leaf area) (Phakopsora pachyrhizi) [%] | infection (% diseased leaf area) (Puccinia recondite) [%] | relative growth in % of the pathogen (Botrytis cinerea) [%]
CC(C1(C)CC1)C(O)(Cn1ncnc1S)c1ccccc1 (stereo not shown) [I.A.9, 2-Phenyl-3-(1-methylcyclopropyl)-1-(5-mercapto-[1,2,4]triazol-1-yl)-butan-2-ol] | 0 |  | 
CC(C1CCCC1)C(O)(Cn1ncnc1S)c1ccc(Cl)cc1 (stereo not shown) [I.A.7, 2-(4-Chloro-phenyl)-3-cyclopentyl-1-(5-mercapto-[1,2,4]triazol-1-yl)-butan-2-ol] | 0 | 20 | 
CC(C1CC1)C(O)(Cn1ncnc1S)c1ccc(F)c(F)c1 (stereo not shown) [I.A.8, 2-(3,4-Difluoro-phenyl)-3-cyclopropyl-1-(5-mercapto-[1,2,4]triazol-1-yl)-butan-2-ol] | 0 | 20 | 
CC(C1CC1)C(O)(Cn1ncnc1S)c1ccc(Cl)c(Cl)c1 (stereo not shown) [I.A.5, 2-(3,4-Dichloro-phenyl)-3-cyclopropyl-1-(5-mercapto-[1,2,4]triazol-1-yl)-butan-2-ol] | 0 | 20 | 
CC(C1CCCCC1)C(O)(Cn1ncnc1S)c1ccc(Cl)cc1 (stereo not shown) [I.A.3, 2-(4-Chloro-phenyl)-3-cyclohexyl-1-(5-mercapto-[1,2,4]triazol-1-yl)-butan-2-ol] | 0 | 20 | 0
CC(C1(C)CC1)C(O)(Cn1ncnc1S)c1ccc(Cl)cc1 (stereo not shown) [I.A.6, 2-(4-Chloro-phenyl)-3-(1-methylcyclopropyl)-1-(5-mercapto-[1,2,4]triazol-1-yl)-butan-2-ol] | 0 | 20 | 0
OC(CC1CC1)(Cn1ncnc1S)c1ccc(Cl)cc1 (stereo not shown) [I.A.1, 2-(4-Chloro-phenyl)-3-cyclopropyl-1-(5-mercapto-[1,2,4]triazol-1-yl)-propan-2-ol] | 0 | 20 | 
OC(CC1CC1)(Cn1ncnc1S)c1ccc(Cl)cc1Cl (stereo not shown) [I.A.2, 2-(2,4-Dichloro-phenyl)-3-cyclopropyl-1-(5-mercapto-[1,2,4]triazol-1-yl)-propan-2-ol] | 0 | 20 | 
CC(C1CC1)C(O)(Cn1ncnc1S)c1ccccc1 (stereo not shown) [I.A.4, 2-Phenyl-3-cyclopropyl-1-(5-mercapto-[1,2,4]triazol-1-yl)-butan-2-ol] | 0 | 20 | 
